Reference: PMC6154719 (Molecules : A Journal of Synthetic Chemistry and Natural …, 2017)

Legend:
Assay type in all cases: in vitro ADME
SULT = SULT activity in rat liver subcellular fraction; settings: 100 µM sesquiterpene, control 8.74 ± 0.52
Description: (§1) Enzyme activities were assayed in human and rat liver cytosolic and microsomal fractions. The enzyme assays (each performed in 4–8 replicates) were repeated three times (HPLC measurement of CYP activities was repeated only twice, Table 3). Inhibition studies were carried out by incubation of specific substrates in the presence of sesquiterpenes (in the range 0–100 µM).
(§2) The assays of all other enzymes were based on spectrophotometric detection of product formed or detection of decreasing substrate/cofactor levels using microplate reader Tecan Infinite M200 in cytosolic or microsomal fractions. Enzyme activities were determined using slight modifications of previously-published methods: carbonyl reducing enzymes (AKR1A, AKR1C, CBR1 [45], NQO1 [46]), UDP-glucuronosyltransferase (UGT [47]), sulfotransferase (SULT [48]), and cytosolic glutathione-S-transferase (GST [49]).
(§3) Sesquiterpenes CNER, TNER and FAR, non-volatile liquids, were pipetted, and proper concentration was calculated according to density. All compounds were dissolved in DMSO. The final solvent concentration in the inhibition assays was 1%, which had no effect on the enzyme activity (data not shown). Non-enzymatic interference of sesquiterpenes with some compounds in the reaction mixtures (e.g., fluorescence enhancing or quenching) was considered and excluded. All experiments were performed in three replicates, if not stated otherwise.
(§4) CNER, TNER and FAR at a fixed concentration of 100 µM were screened for inhibition of cytosolic AKR1A1, AKR1C, CBR1, NQO1, SULT, and GST, and microsomal CYPs and UGT. The degree of inhibition caused by sesquiterpenes was compared with non-inhibited control reactions, which contained solvent without sesquiterpenes.

NQO1 = target: T1, NQO1 (Rattus norvegicus, UniProt P05982); assay: NQO1 activity in rat liver subcellular fraction; settings: 100 µM sesquiterpene, control 25.3 ± 5.6
T1 construct: Frozen liver (both rat and human) was thawed; from tissue; host or cells: rat liver cytosolic fraction
T1 sequence (P05982 2-274 limits assumed): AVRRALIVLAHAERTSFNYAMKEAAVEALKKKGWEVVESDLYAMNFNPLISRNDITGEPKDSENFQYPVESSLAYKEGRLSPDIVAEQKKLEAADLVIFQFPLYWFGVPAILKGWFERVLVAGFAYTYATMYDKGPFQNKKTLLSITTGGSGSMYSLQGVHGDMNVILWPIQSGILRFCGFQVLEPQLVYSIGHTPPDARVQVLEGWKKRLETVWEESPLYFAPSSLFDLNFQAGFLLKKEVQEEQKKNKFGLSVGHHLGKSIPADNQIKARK
Description: as §1, §2, §3, §4

CYP1A2 = target: T2, CYP1A2 (Rattus norvegicus, UniProt P04799); assay: CYP1A2 (EROD activity, 7-ethoxyresorufin O-deethylation) in rat liver microsomes; settings: for Specific Activity, CYP1A2 (EROD activity): in the presence of 100 µM sesquiterpene, control 22.8 ± 0.1
T2 construct: Frozen liver (both rat and human) was thawed; from tissue; host or cells: rat liver microsomal fraction
T2 sequence (P04799 1-513): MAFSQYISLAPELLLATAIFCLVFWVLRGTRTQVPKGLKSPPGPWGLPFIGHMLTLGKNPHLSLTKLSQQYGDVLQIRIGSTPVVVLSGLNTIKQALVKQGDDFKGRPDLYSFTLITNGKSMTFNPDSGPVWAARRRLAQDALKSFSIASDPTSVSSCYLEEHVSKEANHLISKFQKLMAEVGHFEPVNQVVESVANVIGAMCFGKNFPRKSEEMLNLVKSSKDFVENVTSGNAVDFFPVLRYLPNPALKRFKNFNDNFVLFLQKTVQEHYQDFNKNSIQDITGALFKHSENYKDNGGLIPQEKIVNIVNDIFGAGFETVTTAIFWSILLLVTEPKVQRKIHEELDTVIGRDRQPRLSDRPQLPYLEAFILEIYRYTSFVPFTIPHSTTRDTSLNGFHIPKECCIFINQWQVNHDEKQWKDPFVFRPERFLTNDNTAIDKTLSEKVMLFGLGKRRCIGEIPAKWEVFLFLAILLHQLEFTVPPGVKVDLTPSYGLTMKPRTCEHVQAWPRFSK
Description: as §1
Enzyme activities of individual CYP forms were measured according to established protocols. The following microsomal CYP activities were tested: CYP2A6, coumarin 7-hydroxylation; CYP2B6, 7-ethoxy-4-(trifluoromethyl)coumarin 7-deethylation, CYP2C9, diclofenac 4′-hydroxylation, CYP2C19 assay, S-mephenytoin 4′-hydroxylation, CYP2D6 on bufuralol 1′-hydroxylation, CYP2E1, chlorzoxazone 6-hydroxylation and CYP3A4, testosterone 6β-hydroxylation, and midazolam 1′-hydroxylation. Activities were measured using the Prominence HPLC system (Shimadzu, Kyoto, Japan), equipped with a LiChroCART 250-4 LiChrospher 100 RP-18 column or Chromolith®HighResolution RP-18 end-capped column (Merck, Darmstadt, Germany) and UV or fluorescence detection, according to the cited literature. Further incubation details are described either in the corresponding references, as well as in the papers from this laboratory e.g., [42, 43, 44]. CYP1A2, 7-ethoxyresorufin O-deethylation, and CYP3A4/2B6 (human), CYP2B1 (rat), benzyloxyresorufin O-debenzylation were measured using the microplate reader Tecan Infinite M200 (Tecan Group; Mannedorf, Switzerland).
as §3, §4
The concentration of sesquiterpenes required for 50% inhibition of enzyme activity, the IC50 value, was determined. Their final concentrations in the reaction mixture were proposed to cover the entire inhibitory range of these compounds (1–100 µM). The IC50 values for each sesquiterpene were determined by plotting sigmoidal dose response curves of specific enzyme activity vs. logarithm of sesquiterpene concentration using GraphPad Prism version 6.07 for Windows (GraphPad Software Inc., La Jolla, CA, USA).
The kinetic inactivation study of the CYP1A2 (EROD activity) and CYP2B/3A (BROD activity), both in rat and human, with TNER, was performed to find out the mechanism of enzyme inhibition by this sesquiterpene. Mechanism of EROD and BROD inhibition was tested at the final ethoxyresorufin or benzyloxyresorufin concentrations 0.5–5.0 µM. The concentration of TNER was 5.0 µM.
Experimental data were fitted to the Michaelis-Menten equation, basic kinetic parameters were determined using the program GraphPad Prism version 6.07 for Windows. The type of inhibition was estimated using a Lineweaver-Burk (double-reciprocal) plot.

AKR1A = target: T3, AKR1A (Rattus norvegicus, UniProt P51635); assay: AKR1A activity in rat liver subcellular fraction; settings: 100 µM sesquiterpene, control 3.60 ± 0.13
T3 construct: Frozen liver (both rat and human) was thawed; from tissue; host or cells: rat liver cytosolic fraction
T3 sequence (P51635 1-325): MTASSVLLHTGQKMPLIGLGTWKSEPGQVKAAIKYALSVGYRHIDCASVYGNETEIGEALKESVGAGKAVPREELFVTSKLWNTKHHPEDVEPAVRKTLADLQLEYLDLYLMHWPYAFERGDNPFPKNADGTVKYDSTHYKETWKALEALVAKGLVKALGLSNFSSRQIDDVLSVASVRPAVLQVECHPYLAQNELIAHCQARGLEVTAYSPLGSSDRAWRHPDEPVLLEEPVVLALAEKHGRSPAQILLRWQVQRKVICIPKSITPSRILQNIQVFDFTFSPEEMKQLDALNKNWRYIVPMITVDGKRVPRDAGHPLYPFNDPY
Description: as §1, §2, §3, §4

| SMILES | Specific activity, SULT (SULT) | Specific activity, NQO1 (NQO1) | IC50 (CYP1A2; rat liver microsomes) | Specific Activity, CYP1A2 (EROD activity) (CYP1A2; rat liver microsomes) | Specific activity, AKR1A (AKR1A) | Ki (CYP1A2; rat liver microsomes, EROD activity) | K’M (CYP1A2; rat liver microsomes, ethoxyresorufin 0.5–5.0 µM in the presence of TNER 5 µM, KM without TNER 1.64 ± 0.45) | V’MAX (CYP1A2; rat liver microsomes, ethoxyresorufin 0.5–5.0 µM in the presence of TNER 5 µM, VMAX without TNER 4.32 ± 0.47) | type of inhibition, CYP1A2 (EROD) (CYP1A2; rat microsomes, 5 µM TNER, ethoxyresorufin 0.5–5.0 µM) |
| --- | --- | --- | --- | --- | --- | --- | --- | --- | --- |
| CC(C)=CCC/C(C)=C/CC/C(C)=C/CO [FAR, farnesol] | 8.55 ± 0.30 nmol/mg/min | 22.2 ± 3.3 nmol/mg/min | 16.1 µM | 1.55 ± 0.02 pmol/mg/min | 3.48 ± 0.32 nmol/mg/min | – | – | – | – |
| C=CC(C)(O)CC/C=C(\C)CCC=C(C)C (stereo not drawn) [TNER, trans-nerolidol] | 8.48 ± 0.28 nmol/mg/min | 21.8 ± 2.4 nmol/mg/min | 4.38 µM | 1.53 ± 0.03 pmol/mg/min | 3.71 ± 0.56 nmol/mg/min | 4.68 ± 0.66 µM | 1.89 ± 0.49 µM | 2.21 ± 0.24 nM/min | non-competitive |
| C=CC(C)(O)CC/C=C(/C)CCC=C(C)C (stereo not drawn) [CNER, cis-nerolidol] | 8.74 ± 0.26 nmol/mg/min | 21.7 ± 3.6 nmol/mg/min | 5.7 µM | 2.16 ± 0.04 pmol/mg/min | 3.86 ± 0.47 nmol/mg/min | – | – | – | – |
